For one test, the target named is wild type CFTR (Homo sapiens, UniProt P13569). The test can be described thus: CFTR activity in normal HBE cells (NHBE). The test is classed as cell-based. More on the design: University of North Carolina; host or cells: primary normal human bronchial epithelial cells. The conditions noted are these: forskolin 0.1 or 0.3 μM, potentiator GLPG2451 10 μM added afterwards. As to the method: Bronchial epithelial cells isolated from transplanted lungs from normal (wt CFTR) or CF patients homozygous for the F508del CFTR mutation, were obtained from McGill University (Montreal, QC, Canada) and University of North Carolina (Chapel Hill, NC, United States). Cells were isolated from lungs obtained from donors undergoing a planned transplantation. These primary cells were cultured directly on type IV collagen-coated polycarbonate Transwell supports with a diameter of 6.5 mm and pore size of 0.4 μm (Costar, #3397) for 18–25 days in air liquid (ali) interface essentially as previously described ([Fulcher et al., 2005]) for TECC. A similar cell culture protocol was used for Ussing chambers but using type IV collagen-coated polycarbonate Millicell supports with a diameter of 12 mm and a pore size of […] (Millicell, PIHP01250).
Corrector and/or potentiator compound(s) were added on the basolateral side of the HBEs for 24 h to rescue F508del CFTR. […] The transepithelial potential (PD) and transepithelial resistance (Rt) were measured in an open circuit and transformed to Ieq using Ohm’s law. […]
FIGURE 6 Effects of GLPG2737 on normal human bronchial epithelial cells (NHBE) and HEK cells expressing WT CFTR. […] (D) NHBE treated for 24 h with 1 μM GLPG2737 or DMSO (control), CFTR channel was activated with either 0.1 μM or 0.3μM forskolin, measured Isc shown in gray. […]

For a further test, the target named is F508del CFTR (Homo sapiens, UniProt P13569, DEL508-508). The test can be described thus: CSE-MEM assay (cell surface expression DiscoverX assay). The test is classed as cell-based. More on the design: University of North Carolina; host or cells: primary human bronchial epithelial cells, F508del/F508del donors. The conditions noted are these: 24 h treatment; for % F508del PM Expression vs control: VX809 rescue = 100%. As to the method:
Twenty-five microliters of cell plating reagent 5 (DiscoverX, 93-0563R5A) containing 5000 U2OS EA-MEM F508del_CFTR cells per well was added in white 384 well plates (Greiner, 781080) on day 1 and incubated overnight at 37°C, 5% CO2. On day 2, medium was refreshed and compounds (1 μl of 26 × concentrated solution) were added to the cells. All compounds used during the experiment were first dissolved in DMSO to a 10 mM solution which was then diluted to a 26 × solution in the medium just prior to the experiment. Cells were incubated with compounds for 20–24 h at 37°C, 5% CO2. On day 3, the plates were first incubated at room temperature for 1 h. After 1 h the plates were washed two times with PBS +/+ (Gibco, 14040-091) and 30 μL PBS +/+ (Gibco, 14040-091) was added after the last wash step. Then 15 μL of substrate (DiscoverX, 93-0247: 1 part Flash cell assay buffer + 4 parts Flash substrate) was added per well. After 1 h of incubation at room temperature in the dark, the luminescence signal was read on an EnVision plate reader (PerkinElmer).
To discover novel correctors several high throughput screening campaigns were performed using cell based assays measuring plasma membrane expression of the F508del CFTR protein. The CSE-HRP system used CFBE41O-cells, a lung epithelial cell line, stably transfected with F508del CFTR tagged with HRP in the fourth extracellular loop ([Veit et al., 2014]). The CSE-MEM system, used U2OS cells, an osteosarcoma epithelial cell line, stably transfected with F508del CFTR tagged with a Pro-link moiety at the C-terminal and a plasma membrane located EA (enzyme acceptor) moiety. The latter cells were created by DiscoverX and the assay further optimized to allow robust evaluation in a high throughput manner.
For screening, cells were pre-incubated with compound for 24 h prior to read-out to allow sufficient time for de novo synthesis, and cellular trafficking of F508del-CFTR to reach steady state levels at the plasma membrane. […]

Sequence of F508del CFTR (P13569 with tags, fused parts or gaps DEL508-508): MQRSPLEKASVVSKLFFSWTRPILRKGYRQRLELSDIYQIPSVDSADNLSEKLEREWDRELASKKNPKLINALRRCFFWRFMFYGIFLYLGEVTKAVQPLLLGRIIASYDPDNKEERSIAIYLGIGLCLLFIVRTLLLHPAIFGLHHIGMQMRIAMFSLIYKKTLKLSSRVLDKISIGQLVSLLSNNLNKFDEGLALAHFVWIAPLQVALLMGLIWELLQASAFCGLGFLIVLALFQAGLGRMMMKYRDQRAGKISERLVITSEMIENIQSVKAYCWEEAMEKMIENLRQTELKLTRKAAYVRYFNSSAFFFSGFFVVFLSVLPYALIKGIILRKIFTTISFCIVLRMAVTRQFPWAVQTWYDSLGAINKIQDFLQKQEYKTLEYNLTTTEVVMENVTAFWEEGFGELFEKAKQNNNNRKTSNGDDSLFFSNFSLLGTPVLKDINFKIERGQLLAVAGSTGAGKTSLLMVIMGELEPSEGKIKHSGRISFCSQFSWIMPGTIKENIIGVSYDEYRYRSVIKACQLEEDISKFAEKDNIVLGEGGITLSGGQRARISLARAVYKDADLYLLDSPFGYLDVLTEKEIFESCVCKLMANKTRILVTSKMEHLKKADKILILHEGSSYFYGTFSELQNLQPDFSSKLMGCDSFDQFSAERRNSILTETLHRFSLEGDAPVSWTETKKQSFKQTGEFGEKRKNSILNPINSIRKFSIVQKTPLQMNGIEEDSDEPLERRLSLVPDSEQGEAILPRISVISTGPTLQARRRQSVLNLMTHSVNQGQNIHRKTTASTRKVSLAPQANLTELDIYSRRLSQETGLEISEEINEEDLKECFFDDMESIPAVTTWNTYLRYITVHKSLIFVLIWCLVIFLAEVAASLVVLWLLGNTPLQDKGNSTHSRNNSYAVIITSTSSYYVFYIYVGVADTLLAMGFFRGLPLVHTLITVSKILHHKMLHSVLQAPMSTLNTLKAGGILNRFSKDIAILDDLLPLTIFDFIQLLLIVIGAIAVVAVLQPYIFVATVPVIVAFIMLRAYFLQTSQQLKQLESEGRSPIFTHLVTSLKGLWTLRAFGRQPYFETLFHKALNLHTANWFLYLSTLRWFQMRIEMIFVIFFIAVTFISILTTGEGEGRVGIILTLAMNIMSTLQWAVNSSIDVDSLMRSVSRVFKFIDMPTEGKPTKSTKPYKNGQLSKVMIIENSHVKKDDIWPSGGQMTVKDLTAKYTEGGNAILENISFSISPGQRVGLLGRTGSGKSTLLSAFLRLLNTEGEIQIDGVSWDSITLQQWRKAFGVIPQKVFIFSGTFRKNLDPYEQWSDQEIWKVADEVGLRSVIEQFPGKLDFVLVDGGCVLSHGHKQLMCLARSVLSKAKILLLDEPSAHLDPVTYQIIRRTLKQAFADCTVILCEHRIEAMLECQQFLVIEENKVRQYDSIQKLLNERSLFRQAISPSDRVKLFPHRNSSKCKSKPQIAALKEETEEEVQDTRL
Sequence of wild type CFTR (P13569 whole entry): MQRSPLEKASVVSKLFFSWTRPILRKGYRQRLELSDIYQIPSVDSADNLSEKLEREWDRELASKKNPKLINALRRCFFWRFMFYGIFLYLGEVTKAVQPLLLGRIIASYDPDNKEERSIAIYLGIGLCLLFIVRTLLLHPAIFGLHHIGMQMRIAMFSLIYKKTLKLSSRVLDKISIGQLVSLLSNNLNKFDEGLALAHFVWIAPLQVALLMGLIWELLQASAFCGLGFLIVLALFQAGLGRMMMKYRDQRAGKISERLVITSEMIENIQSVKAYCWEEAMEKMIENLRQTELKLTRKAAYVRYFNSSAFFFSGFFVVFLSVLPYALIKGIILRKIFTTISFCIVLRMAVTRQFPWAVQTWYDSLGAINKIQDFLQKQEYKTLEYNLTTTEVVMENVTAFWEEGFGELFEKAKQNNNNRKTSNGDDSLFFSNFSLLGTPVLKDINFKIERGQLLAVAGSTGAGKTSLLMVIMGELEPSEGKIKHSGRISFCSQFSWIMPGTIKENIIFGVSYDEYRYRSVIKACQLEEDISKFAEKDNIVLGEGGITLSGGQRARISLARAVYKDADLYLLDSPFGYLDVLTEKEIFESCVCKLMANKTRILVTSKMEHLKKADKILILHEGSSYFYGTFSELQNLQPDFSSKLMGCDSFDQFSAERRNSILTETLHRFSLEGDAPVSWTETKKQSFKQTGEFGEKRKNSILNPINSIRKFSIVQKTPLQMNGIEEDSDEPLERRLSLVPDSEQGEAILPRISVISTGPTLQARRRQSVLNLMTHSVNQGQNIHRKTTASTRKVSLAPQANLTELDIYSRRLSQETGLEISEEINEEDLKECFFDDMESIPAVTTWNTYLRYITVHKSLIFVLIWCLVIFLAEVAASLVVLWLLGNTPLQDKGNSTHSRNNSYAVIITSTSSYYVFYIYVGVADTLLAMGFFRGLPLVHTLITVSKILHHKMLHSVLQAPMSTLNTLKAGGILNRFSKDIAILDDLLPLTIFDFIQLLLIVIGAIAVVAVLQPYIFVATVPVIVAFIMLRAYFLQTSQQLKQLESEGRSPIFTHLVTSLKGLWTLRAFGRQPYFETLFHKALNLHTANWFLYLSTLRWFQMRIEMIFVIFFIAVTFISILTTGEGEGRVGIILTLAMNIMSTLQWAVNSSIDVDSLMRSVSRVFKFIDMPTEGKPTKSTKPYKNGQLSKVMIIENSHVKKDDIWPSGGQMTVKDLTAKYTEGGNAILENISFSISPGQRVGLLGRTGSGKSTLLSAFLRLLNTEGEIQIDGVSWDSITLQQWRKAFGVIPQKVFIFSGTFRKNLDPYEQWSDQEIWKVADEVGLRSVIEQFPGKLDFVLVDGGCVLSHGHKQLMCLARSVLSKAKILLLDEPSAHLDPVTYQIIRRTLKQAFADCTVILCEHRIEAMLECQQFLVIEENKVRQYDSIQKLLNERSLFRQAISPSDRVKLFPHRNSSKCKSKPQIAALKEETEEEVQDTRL

For the molecule `COC1CCN(C2CCN(c3cc(C(=O)NS(=O)(=O)N(C)C)nc4c3c(C3CCC3)nn4-c3ccc(F)cc3)CC2)CC1` [GLPG2737], the CFTR activity result at wild type CFTR is reported as “reduced CFTR activity which could be rescued upon addition of a potentiator”. Further, the “% F508del PM Expression vs control” value at F508del CFTR (+ 3 μM VX809) amounted to 415%. On F508del CFTR (no co-corrector), the EC50 was determined as 707 nM and the “% F508del PM Expression vs control” value came out at 197%.

As a reminder, the EC50 is the concentration giving half of the maximal effect.
